Assay results as given in the NIST ThermoML archive (doi:10.1021/je034279l).

Assays:
[1] = xn = mol fraction of the nth substance listed; details: 298.15 K; for surface tension liquid-gas: Pendant drop shape; for excess molar volume: 101 kPa, Liquid
[2] = 298.15 K; for surface tension liquid-gas: Pendant drop shape; for mass density: 101.33 kPa, Liquid

CC(C)OC(C)C [diisopropyl ether] + Cc1ccc(C)cc1
[1]
Details	excess molar volume [m3/mol]	surface tension liquid-gas [mN/m]
x1 = 0.0527	-1.36e-07	–
x1 = 0.0988	–	26.3
x1 = 0.1016	-2.79e-07	–
x1 = 0.15	-3.98e-07	–
x1 = 0.2011	-5.1e-07	–
x1 = 0.2012	–	24.84
x1 = 0.2527	-5.88e-07	–
x1 = 0.2991	–	23.73
x1 = 0.3004	-6.58e-07	–
x1 = 0.3509	-7.3e-07	–
x1 = 0.4007	-7.61e-07	–
x1 = 0.4045	–	22.68
x1 = 0.4506	-7.85e-07	–
x1 = 0.5044	-8.02e-07	–
x1 = 0.5096	–	21.66
x1 = 0.5507	-7.95e-07	–
x1 = 0.6002	-7.87e-07	–
x1 = 0.603	–	20.76
x1 = 0.6498	-7.56e-07	–
x1 = 0.7	–	19.91
x1 = 0.7007	-7.02e-07	–
x1 = 0.7497	-6.25e-07	–
x1 = 0.7987	–	19.02
x1 = 0.7999	-5.37e-07	–
x1 = 0.8512	-4.32e-07	–
x1 = 0.898	–	18.18
x1 = 0.9	-3.18e-07	–
x1 = 0.9507	-1.78e-07	–

Cc1cccc(C)c1 [1,3-dimethylbenzene]
[2]
Details	mass density [kg/m3]	surface tension liquid-gas [mN/m]
–	859.78	28.36

Cc1ccccc1C [1,2-dimethylbenzene] + COC(C)(C)C
[1]
Details	surface tension liquid-gas [mN/m]
x2 = 0.0997	27.9
x2 = 0.1996	26.62
x2 = 0.3012	25.28
x2 = 0.4008	24.14
x2 = 0.4997	23.12
x2 = 0.6012	22.17
x2 = 0.7002	21.3
x2 = 0.8	20.57
x2 = 0.8999	19.78

Cc1ccccc1C [1,2-dimethylbenzene] + CC(C)OC(C)C
[1]
Details	excess molar volume [m3/mol]	surface tension liquid-gas [mN/m]
x2 = 0.0506	-1.77e-07	–
x2 = 0.0997	-3.15e-07	–
x2 = 0.1022	–	27.21
x2 = 0.1501	-4.49e-07	–
x2 = 0.2003	-5.74e-07	–
x2 = 0.201	–	25.55
x2 = 0.2503	-6.91e-07	–
x2 = 0.3003	-7.82e-07	–
x2 = 0.3018	–	24.17
x2 = 0.35	-8.39e-07	–
x2 = 0.4004	-8.83e-07	–
x2 = 0.4037	–	23.01
x2 = 0.4497	-9.22e-07	–
x2 = 0.4997	–	22
x2 = 0.505	-9.36e-07	–
x2 = 0.5505	-9.48e-07	–
x2 = 0.5998	–	21.03
x2 = 0.6001	-9.1e-07	–
x2 = 0.6509	-8.82e-07	–
x2 = 0.7	-8.11e-07	–
x2 = 0.7013	–	20
x2 = 0.7502	-7.47e-07	–
x2 = 0.7987	–	19.15
x2 = 0.7999	-6.31e-07	–
x2 = 0.8502	-5.11e-07	–
x2 = 0.8987	–	18.08
x2 = 0.8997	-3.69e-07	–
x2 = 0.9493	-2.1e-07	–

Cc1cccc(C)c1 [1,3-dimethylbenzene] + CC(C)OC(C)C
[1]
Details	excess molar volume [m3/mol]	surface tension liquid-gas [mN/m]
x2 = 0.0514	-1.35e-07	–
x2 = 0.1002	-2.42e-07	–
x2 = 0.1019	–	26.38
x2 = 0.1526	-3.55e-07	–
x2 = 0.1997	-4.41e-07	–
x2 = 0.2111	–	24.88
x2 = 0.2501	-5.2e-07	–
x2 = 0.3002	-5.79e-07	23.72
x2 = 0.3498	-6.37e-07	–
x2 = 0.3999	–	22.67
x2 = 0.4001	-6.7e-07	–
x2 = 0.4516	-7.11e-07	–
x2 = 0.4991	–	21.73
x2 = 0.5012	-7.15e-07	–
x2 = 0.5509	-7.18e-07	–
x2 = 0.6001	-6.92e-07	–
x2 = 0.6006	–	20.86
x2 = 0.65	-6.71e-07	–
x2 = 0.6944	-6.17e-07	–
x2 = 0.6994	–	19.91
x2 = 0.7498	-5.58e-07	–
x2 = 0.7998	–	19.02
x2 = 0.8005	-4.77e-07	–
x2 = 0.8506	-3.93e-07	–
x2 = 0.8981	–	18.12
x2 = 0.8998	-2.83e-07	–
x2 = 0.95	-1.64e-07	–

Cc1ccc(C)cc1 [1,4-dimethylbenzene]
[2]
Details	mass density [kg/m3]	surface tension liquid-gas [mN/m]
–	856.85	27.89

COC(C)(C)C [2-methoxy-2-methylpropane] + Cc1ccc(C)cc1
[1]
Details	surface tension liquid-gas [mN/m]
x1 = 0.1008	26.85
x1 = 0.1998	25.81
x1 = 0.3012	24.78
x1 = 0.4026	23.84
x1 = 0.4997	22.96
x1 = 0.6004	22.08
x1 = 0.6993	21.24
x1 = 0.8	20.48
x1 = 0.9002	19.78

CC(C)OC(C)C [diisopropyl ether]
[2]
Details	mass density [kg/m3]	surface tension liquid-gas [mN/m]
–	718.38	17.31

COC(C)(C)C [2-methoxy-2-methylpropane]
[2]
Details	mass density [kg/m3]	surface tension liquid-gas [mN/m]
–	735.48	19.25

Cc1ccccc1C [1,2-dimethylbenzene]
[2]
Details	mass density [kg/m3]	surface tension liquid-gas [mN/m]
–	875.92	29.35

Cc1cccc(C)c1 [1,3-dimethylbenzene] + COC(C)(C)C
[1]
Details	surface tension liquid-gas [mN/m]
x2 = 0.1019	27.13
x2 = 0.2019	26.05
x2 = 0.3028	24.98
x2 = 0.4014	23.99
x2 = 0.4996	23.01
x2 = 0.6006	22.08
x2 = 0.7009	21.26
x2 = 0.8001	20.49
x2 = 0.9004	19.76
